This is an account of results in patent US20090054389A1, “Topical Composition Comprising an Antibacterial Substance” (Leo Pharma A/S, priority 2006, published 2009).

Structures are written as SMILES.

Data set [1] relates to intracellular and extracellular M. leprae. As to conditions: cited from earlier work.
Data set [2] in a line: In vitro skin penetration study (Franz diffusion cells, radiolabelled compositions). As to conditions: barrier-impaired skin; versus fusidic acid in a monoglyceride composition, or versus composition without stabilising agent.

Consider `CC(=O)O[C@H]1C[C@@]2(C)[C@@H](C[C@@H](O)[C@H]3[C@@]4(C)CC[C@@H](O)[C@@H](C)[C@@H]4CC[C@@]32C)/C1=C(\CCC=C(C)C)C(=O)O` [fusidic acid, Fusidic acid], for which the “potency against M. leprae” value in data set [1] is given as “highly potent”.
Regarding `CC(=O)O[C@H]1C[C@@]2(C)[C@@H](C[C@@H](O)[C@H]3[C@@]4(C)CC[C@@H](O)[C@@H](C)[C@@H]4CC[C@@]32C)/C1=C(\CCC(Br)=C(C)C)C(=O)O` [11-^3H 24-bromo-fusidic acid, 24-Bromo-fusidic acid], the “degree of retention in dermis and epidermis, comparison” value in data set [2] is on record as “significantly higher”.
